Earlier results, collected in article PMC7756498 (Chemistry (Weinheim an Der Bergstrasse, Germany), 2020).

Tested on: P. aeruginosa
Settings: ref [18]

MIC (anti-Pseudomonas activity): 4 to 16 µg/mL
Substance: sansanmycin B [sansanmycin B 13]
